Calls of active or inactive are those of the source. The rule behind the calls is not given here.
The compounds below were run on VEEV TC-83 virus titer reduction in cells (assay: VEEV TC-83 titer reduction, cell-based, secondary screen, TC-83 strain, set 4 (AID 651578)). Details: at 5 µM; hits give low values.

Structure (SMILES) | log virus titer change
COc1cccc(-n2c(CN3CCNCC3)nc3ccc([N+](=O)[O-])cc3c2=O)c1 | -0.354 (inactive)
O=c1c2cc([N+](=O)[O-])ccc2nc(CN2CCNCC2)n1-c1ccsc1 | -0.997 (inactive)
CCN1CCN(Cc2nc3ccc([N+](=O)[O-])cc3c(=O)n2-c2ccccc2F)CC1 | -3.36
COc1ccc(-n2c(CN3CCNCC3)nc3ccc([N+](=O)[O-])cc3c2=O)cc1 | -7.41

Reference: PubChem BioAssay AID651578 (Southern Research Specialized Biocontainment Screening …, 2012)
